Results as given in US20240360148A1 (SUVALENT THERAPEUTICS, INC., priority 2021, published 2024).

Experiments:
[1] = biological target: SAE1 (Homo sapiens (Human), UniProt Q9UBE0+Q9UBT2); assay: SAE High Throughput Biochemical Assay (HTRF), 15 min preincubation; conditions: read-out: 15 min preincubation HTRF IC50 (μM) Ave, SAE1 12.5 nM, ATP 100 μM
How it was run: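 HTRF detection of SUMO transfer from SUMO-GST to UBC9-His (40 nM each) by SAE1 at 12.5 nM used 100 μM ATP in pH 7.5 HEPES buffer with 10 mM MgCl2 and 0.1% BSA. Enzyme and compound were preincubated 15 min at RT and the reaction ran 45 min, with readings after 2 h and overnight.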

[2] = test system: sumoylation levels (SUMO 2/3 conjugates) in HCT-116 cells; assay: HCT-116 4 Hour Cell Assay (Western, SUMO 2/3 conjugates); assay type: cell-based; conditions: Homo sapiens, HCT-116, 4 h, 4 h treatment, Anti-Sumo 2-3 immunoblot, read-out: HCT-116 Western 4 h IC50 (μM) Ave
How it was run: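 IC50 derived from fluorescent immunoblot quantification of SUMO 2/3 conjugate bands, normalized to total protein, after non-reducing SDS-PAGE. Lysis used RIPA plus NEM; exposure was 4 h across 11 concentrations, three-fold serial dilution starting at 25 μM.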

Chain of SAE1 (Q9UBE0 whole entry): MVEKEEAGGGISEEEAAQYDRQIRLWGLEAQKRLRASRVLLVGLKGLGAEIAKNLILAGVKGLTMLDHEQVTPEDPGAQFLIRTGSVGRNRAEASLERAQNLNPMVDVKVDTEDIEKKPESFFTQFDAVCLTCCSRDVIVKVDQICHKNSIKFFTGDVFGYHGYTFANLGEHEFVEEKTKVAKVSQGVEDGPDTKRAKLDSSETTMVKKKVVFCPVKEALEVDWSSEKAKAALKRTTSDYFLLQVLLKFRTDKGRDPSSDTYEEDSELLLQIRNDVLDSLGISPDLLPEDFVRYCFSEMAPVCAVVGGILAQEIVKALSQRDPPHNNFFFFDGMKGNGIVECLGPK
Chain of SAE1 (Q9UBT2 whole entry): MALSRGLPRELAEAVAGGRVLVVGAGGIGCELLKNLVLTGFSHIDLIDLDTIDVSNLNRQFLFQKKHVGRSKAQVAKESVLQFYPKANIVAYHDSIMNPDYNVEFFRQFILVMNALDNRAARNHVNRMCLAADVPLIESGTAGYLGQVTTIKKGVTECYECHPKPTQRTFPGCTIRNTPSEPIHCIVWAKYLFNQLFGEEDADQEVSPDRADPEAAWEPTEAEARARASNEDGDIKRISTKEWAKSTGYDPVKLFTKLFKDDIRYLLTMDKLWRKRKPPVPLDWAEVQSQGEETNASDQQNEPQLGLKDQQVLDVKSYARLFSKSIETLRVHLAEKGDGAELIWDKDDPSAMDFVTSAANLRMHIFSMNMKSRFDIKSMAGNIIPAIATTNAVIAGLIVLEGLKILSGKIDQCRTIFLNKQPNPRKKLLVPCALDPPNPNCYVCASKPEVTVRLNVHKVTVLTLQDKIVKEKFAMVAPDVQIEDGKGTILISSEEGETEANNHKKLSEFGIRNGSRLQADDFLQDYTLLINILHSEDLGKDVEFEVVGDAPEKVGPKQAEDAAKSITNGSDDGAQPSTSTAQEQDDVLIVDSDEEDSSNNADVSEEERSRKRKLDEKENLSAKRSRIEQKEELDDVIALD

SMILES | IC50 [1] | IC50 [2]
CCn1cc(-c2c(F)cccc2[C@@H]2CN(C(=O)/C=C/CNC(C)(C)C)Cc3sc(C#N)cc32)c(C(F)(F)F)n1 [Example 127, (S, E)-6-(4-(tert-butylamino)but-2-enoyl)-4-(2-(1-ethyl-3-(trifluoromethyl)-1 H pyrazol-4-yl)-3-fluorophenyl)-4,5,6,7-tetrahydrothieno[2,3-c]pyridine-2-carbonitrile] | 1.07 µM | 0.225 µM
Cn1cc(-c2c(F)cccc2[C@@H]2CN(C(=O)/C=C/[C@@H]3CCCN3)Cc3sc(C#N)cc32)c(C(F)(F)F)n1 [Example 128, (S)-4-(3-Fluoro-2-(1-methyl-3-(trifluoromethyl)-1H-pyrazol-4-yl)phenyl)-6-((E)-3-((S)pyrrolidin-2-yl)acryloyl)-4,5,6,7-tetrahydrothieno[2,3-c]pyridine-2-carbonitrile] | 0.75 µM | 0.0658 µM
CNC/C=C/C(=O)N1Cc2sc(C#N)cc2[C@H](c2cccc(F)c2-c2cn(C)nc2C(F)(F)F)C1 [Example 129, (S,E)-4-(3-Fluoro-2-(1-methyl-3-(trifluoromethyl)-1 H pyrazol-4-yl)phenyl)-6-(4-(methylamino)but-2-enoyl)-4,5,6,7-tetrahydrothieno[2,3-c]pyridine-2-carbonitrile] | 0.505 µM | 0.249 µM
CCn1cc(-c2ccccc2[C@@H]2CN(C(=O)C#CCN(C)C)Cc3sc(C#N)cc32)c(C(F)(F)F)n1 [Example 132, (S)-6-(4-(Dimethylamino)but-2-ynoyl)-4-(2-(1-ethyl-3-(trifluoromethyl)-1 H-pyrazol-4-yl)phenyl)-4,5,6,7-tetrahydrothieno[2,3-c]pyridine-2-carbonitrile] | 0.18 µM | 0.547 µM
CCn1cc(-c2ccccc2[C@@H]2CN(C(=O)C#CCN)Cc3sc(C#N)cc32)c(C(F)(F)F)n1 [Example 135, (S)-6-(4-Aminobut-2-ynoyl)-4-(2-(1-ethyl-3-(trifluoromethyl)-1H pyrazol-4-yl)phenyl)-4,5,6,7-tetrahydrothieno[2,3-c]pyridine-2-carbonitrile] | 0.51 µM | 1.2 µM
CCn1cc(-c2ccccc2[C@@H]2CN(C(=O)C#CC3(N)CC3)Cc3sc(C#N)cc32)c(C(F)(F)F)n1 [Example 136, (S)-6-(3-(1-Aminocyclopropyl)propioloyl)-4-(2-(1-ethyl-3-(trifluoromethyl)-1 H-pyrazol-4-yl)phenyl)-4,5,6,7-tetrahydrothieno[2,3-c]pyridine-2-carbonitrile] | 4.13 µM | 2.53 µM
CCn1cc(-c2ccccc2[C@@H]2CN(C(=O)C#CC3(N)CCCC3)Cc3sc(C#N)cc32)c(C(F)(F)F)n1 [Example 138, (S)-6-(3-(1-Aminocyclopentyl)propioloyl)-4-(2-(1-ethyl-3-(trifluoromethyl)-1 H-pyrazol-4-yl)phenyl)-4,5,6,7-tetrahydrothieno[2,3-c]pyridine-2-carbonitrile] | 0.5 µM | 2.69 µM
CCn1cc(-c2ccccc2[C@@H]2CN(C(=O)C#CC3CCCN3)Cc3sc(C#N)cc32)c(C(F)(F)F)n1 (stereo partly drawn) [Example 139, (4S)-4-(2-(1-Ethyl-3-(trifluoromethyl)-1 H pyrazol-4-yl)phenyl)-6-(3-(pyrrolidin-2-yl)propioloyl)-4,5,6,7-tetrahydrothieno[2,3-c]pyridine-2-carbonitrile] | 0.07 µM | 0.97 µM
CCn1cc(-c2ccccc2[C@@H]2CN(C(=O)C#C[C@]3(C)CCCN3)Cc3sc(C#N)cc32)c(C(F)(F)F)n1 [Example 140, (S)-4-(2-(1-Ethyl-3-(trifluoromethyl)-1 H-pyrazol-4-yl)phenyl)-6-(3-((S)-2-methylpyrrolidin-2-yl)propioloyl)-4,5,6,7-tetrahydrothieno[2,3-c]pyridine-2-carbonitrile] | 0.12 µM | 2.36 µM
CCn1cc(-c2ccccc2[C@@H]2CN(C(=O)C#C[C@@]3(C)CCCN3)Cc3sc(C#N)cc32)c(C(F)(F)F)n1 [Example 141, (S)-4-(2-(1-Ethyl-3-(trifluoromethyl)-1 H pyrazol-4-yl)phenyl)-6-(3-((R)-2-methylpyrrolidin-2-yl)propioloyl)-4,5,6,7-tetrahydrothieno[2,3-c]pyridine-2-carbonitrile] | 0.35 µM | 4.88 µM
CCn1cc(-c2ccccc2[C@@H]2CN(C(=O)C#CCOC)Cc3sc(C#N)cc32)c(C(F)(F)F)n1 [Example 144, (S)-4-(2-(1-Ethyl-3-(trifluoromethyl)-1 H pyrazol-4-yl)phenyl)-6-(4-methoxybut-2-ynoyl)-4,5,6,7-tetrahydrothieno[2,3-c]pyridine-2-carbonitrile] | 0.54 µM | 0.792 µM
CCn1cc(-c2ccccc2[C@@H]2CN(C(=O)C#CC3CCNC3)Cc3sc(C#N)cc32)c(C(F)(F)F)n1 (stereo partly drawn) [Example 146, (4S)-4-(2-(1-Ethyl-3-(trifluoromethyl)-1 H pyrazol-4-yl)phenyl)-6-(3-(pyrrolidin-3-yl)propioloyl)-4,5,6,7-tetrahydrothieno[2,3-c]pyridine-2-carbonitrile] | 1.92 µM | 0.501 µM
CCn1cc(-c2ccccc2[C@@H]2CN(C(=O)C#CC3CNC3)Cc3sc(C#N)cc32)c(C(F)(F)F)n1 [Example 147, (S)-6-(3-(Azetidin-3-yl)propioloyl)-4-(2-(1-ethyl-3-(trifluoromethyl)-1 H pyrazol-4-yl)phenyl)-4,5,6,7-tetrahydrothieno[2,3-c]pyridine-2-carbonitrile] | 0.62 µM | 3.47 µM
CN(C)CC#CC(=O)N1Cc2sc(C#N)cc2[C@H](c2ccccc2-c2c[nH]nc2C(F)(F)F)C1 [Example 151, (S)-6-(4-(Dimethylamino)but-2-ynoyl)-4-(2-(3-(trifluoromethyl)-1 H-pyrazol-4-yl)phenyl)-4,5,6,7-tetrahydrothieno[2,3-c]pyridine-2-carbonitrile] | 0.18 µM | 0.587 µM
C#CCn1cc(-c2ccccc2[C@@H]2CN(C(=O)/C=C/CN(C)C)Cc3sc(C#N)cc32)c(C(F)(F)F)n1 [Example 155, (S, E)-6-(4-(Dimethylamino)but-2-enoyl)-4-(2-(1-(prop-2-yn-1-yl)-3-(trifluoromethyl)-1 H-pyrazol-4-yl)phenyl)-4,5,6,7-tetrahydrothieno[2,3-c]pyridine-2-carbonitrile] | 3.52 µM | 0.321 µM
CN(C)C/C=C/C(=O)N1Cc2sc(C#N)cc2[C@H](c2ccccc2-c2cn(-c3c(F)cncc3Cl)nc2C(F)(F)F)C1 [Example 156, (S,E)-4-(2-(1-(3-Chloro-5-fluoropyridin-4-yl)-3-(trifluoromethyl)-1H pyrazol-4-yl)phenyl)-6-(4-(dimethylamino)but-2-enoyl)-4,5,6,7-tetrahydrothieno[2,3-c]pyridine-2-carbonitrile] | 2.91 µM | 0.349 µM
CN(C)C/C=C/C(=O)N1Cc2sc(C#N)cc2[C@H](c2ccccc2-c2cn(-c3c(F)cncc3F)nc2C(F)(F)F)C1 [Example 159, (S,E)-4-(2-(1-(3,5-Difluoropyridin-4-yl)-3-(trifluoromethyl)-1H pyrazol-4-yl)phenyl)-6-(4-(dimethylamino)but-2-enoyl)-4,5,6,7-tetrahydrothieno[2,3-c]pyridine-2-carbonitrile] | 4.52 µM | 0.128 µM
